Source: US20020192711A1, “Methods for identifying ligands of G-Protein-Coupled receptors” (priority 2001, published 2002)
“Also recorded” adds a separate entry of the source.

Columns and labels:
β1-adrenergic receptor = β1-adrenergic receptor (Homo sapiens, UniProt P08588); assay: Binding-displacement at β1-adrenergic receptor (FIG. 2D); conditions: membranes or solubilized receptor; 10 μM unlabeled ligand
Procedure: (§1) The β1-adrenergic receptor, either in the membranes or solubilized (according to the invention), was incubated with the radiolabeled ligand, iodocyanopindolol, at a set concentration, in the presence or absence of 10 μM unlabeled ligand (pindolol). In the absence of unlabeled ligand, maximal binding of the radiolabeled ligand is observed.

CCR5 [1] = target: T1, CCR5 (Homo sapiens, UniProt P51681, L55Q); assay: Binding-displacement of radiolabeled MIP-1β at CCR5 (FIG. 2A); conditions: CCR5 in membranes or solubilized and immobilized; various concentrations
T1 construct: made in house; host or cells: insect cells (Sf9 / High Five), baculovirus
T1 sequence (P51681 1-352 L55Q): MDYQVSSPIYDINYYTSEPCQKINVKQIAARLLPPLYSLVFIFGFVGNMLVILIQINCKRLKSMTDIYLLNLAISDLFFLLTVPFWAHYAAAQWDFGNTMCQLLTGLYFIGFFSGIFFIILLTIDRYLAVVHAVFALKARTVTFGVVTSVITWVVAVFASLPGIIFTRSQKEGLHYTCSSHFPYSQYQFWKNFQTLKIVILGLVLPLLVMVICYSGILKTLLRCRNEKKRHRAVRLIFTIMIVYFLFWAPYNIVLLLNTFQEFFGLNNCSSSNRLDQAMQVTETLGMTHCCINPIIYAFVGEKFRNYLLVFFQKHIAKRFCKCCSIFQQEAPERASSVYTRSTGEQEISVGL
Procedure: The CCR5 receptor, either in membranes or solubilized and immobilized onto the column, was incubated with the radiolabeled ligand, MIP-1β, at a set concentration, in the presence of various concentrations of the unlabeled ligand, MIP-1α. […] This displacement of the radioligand with increasing concentrations of unlabeled ligand gave a standard sigmoidal shaped curve. The two curves, one for the membrane binding-displacement and one for the binding-displacement for the immobilized receptor were substantially similar (within the experimental error), indicating similar functional conformation of the receptor in the membranes and immobilized receptor.

CCR5 [2] = assay: Ligand mixture incubated with immobilized CCR5, western blot detection; type: binding; conditions: mixture of RANTES, MDC, gonadotropin releasing hormone
Procedure: CCR5 was obtained and prepared with a GST tag bound to glutathione column according to the steps provided in Example 1. Thereafter, a ligand mixture (RANTES, MDC, gonadotropin releasing hormone) was incubated with immobilized CCR5 to determine which ligands bound to the receptor. After washing to remove non-specific binding, the SDS-PAGE sample buffer was added to each, boiled for 1 minute, and loaded onto an SDS-PAGE gel. In order to analyze the beads, SDS-PAGE was performed on the various samples and transferred to nitrocellulose by western blotting to determine which ligands were bound. Duplicate samples were run, one group for detection with anti-RANTES antibody and one group for detection with anti-MDC antibody.
The molecular weights (in kDa) as determined by the standards are listed on the left side of the blot. The individual lanes are numbered across the top of the blot. Lanes 1-4 were developed with anti-RANTES antibody. […] The band at approximately 8 kDa is RANTES. […] Lane 3 is a RANTES standard (positive control). Lane 4 is the MDC (macrophage-derived chemokine) standard (negative control—[…]). Lanes 5-8 were developed with anti-MDC (macrophage-derived chemokine, a CCR4 ligand ) antibody. […] Lane 6 is the same as lane 2 but developed with anti-MDC antibody. Lane 7 is RANTES standard and Lane 8 is MDC standard. […]

CCR5 [3] = assay: Affinity purification of THP-1 culture supernatant HPLC fractions on immobilized CCR5, silver stain/mass spectrometry; type: binding; conditions: LPS-induced THP-1 supernatant, RP-HPLC fractions
Procedure: Expressed CCR5-GST was immobilized in the same fashion as described above using a glutathione-sepharose resin. THP-1 cells, a monocytic cell line, were induced with lipopolysaccharide (LPS) from E. coli extracts (Sigma, St. Louis, Mo.), and grown for 48 hours. THP-1 cells were selected for the purpose of this experiment because THP-1 cells are a general monocytic cell line that expresses CCR5 (the receptor of interest). Also, THP-1 cells, and other monocytes are involved in the inflammatory process and migrate to sites of inflammation in response to a chemokine gradient. These cells can also be induced to produce more chemokines by using reagents such as lipopolysaccharide (LPS) from E. coli.
The THP-1 cells were harvested by centrifugation. […] The quantity of RANTES quantitatively determined to be approximately 1 μg in approximately 2-3 L. These crude fractions or pools were purified by CCR5 affinity columns and by incubating with the immobilized CCR5. […]
The CCR5 with column fractions were compared to CCR5-only controls because there are proteins that non-specifically bind to the column, and because the CCR5 receptor and any contaminants present in the preparation can be seen as protein bands. […] Therefore, bands that were detected only in the fraction samples were submitted for sequencing and identified by mass spectrometry. […]

CCR5 [4] = assay: Affinity de-orphaning: in vitro translated cDNA pool incubated with immobilized CCR5-GST, SDS-PAGE/phosphorimage; type: binding; conditions: human lung cDNA library spiked with RANTES, [35S]-Met, CCR5 on sepharose beads
Procedure: CCR5 was obtained and prepared with a GST tag according to the steps provided in Example 1. CCR5-GST was immobilized on a glutathione column using the GST tag, and incubated with ligands obtained using in vitro translation of small pools of approximately 100 clones from a cDNA library. […] Thereafter, a human lung cDNA library was spiked with RANTES and was transcribed and translated in vitro using the TNT Quick Coupled Wheat Germ kit, available from Promega Corporation (Madison, Wis.) with [^35S]-Met. RANTES cDNA alone was used as a positive control for translation and binding experiments.
A human lung cDNA library was chosen because RANTES was originally isolated from a human lung library. Also, libraries derived from tissues having an abundant number of immune cells, such as spleen and thymus tissues also are possible sources. The cDNA was in a bacterial host (E. coli). In general, the clones were transcribed and translated, and a mixture of their respective proteins was produced in a concentrated sample. This sample then was then probed with a receptor (i.e., CCR5) to determine if there are any proteins in the pool that can bind to the receptor of interest. The concentration was approximately 5×10^9 colony forming units per ml. Thus, dilution was necessary to dilute the number of clones to approximately 100 per pool. […]

CCR5 [5] = conditions: CCR5 membrane preparations; value obtained by Receptor Biology, own preparations comparable; read-out: Kd for MIP1-β binding; cited from earlier work
C5a receptor = target: T2, C5a receptor (Homo sapiens, UniProt P21730); assay: Binding-displacement at C5a receptor (FIG. 2E); conditions: membranes or solubilized receptor; 10 μM unlabeled ligand
T2 sequence (P21730 1-350): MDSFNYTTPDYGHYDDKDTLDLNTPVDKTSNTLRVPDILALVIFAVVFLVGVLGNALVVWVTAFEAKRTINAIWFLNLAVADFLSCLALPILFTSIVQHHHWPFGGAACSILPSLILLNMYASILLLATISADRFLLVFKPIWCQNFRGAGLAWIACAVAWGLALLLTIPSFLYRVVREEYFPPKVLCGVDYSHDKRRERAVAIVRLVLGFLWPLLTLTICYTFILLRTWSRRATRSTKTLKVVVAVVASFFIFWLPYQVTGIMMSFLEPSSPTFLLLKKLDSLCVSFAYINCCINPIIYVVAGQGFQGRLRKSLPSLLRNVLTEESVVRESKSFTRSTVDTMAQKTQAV
Procedure: as §1, with “[…],” for “β1-adrenergic receptor,”, “C5a,” for “iodocyanopindolol,”, “(C5a).” for “(pindolol).”

β1-adrenergic receptor, sequence (P08588 whole entry, species assumed): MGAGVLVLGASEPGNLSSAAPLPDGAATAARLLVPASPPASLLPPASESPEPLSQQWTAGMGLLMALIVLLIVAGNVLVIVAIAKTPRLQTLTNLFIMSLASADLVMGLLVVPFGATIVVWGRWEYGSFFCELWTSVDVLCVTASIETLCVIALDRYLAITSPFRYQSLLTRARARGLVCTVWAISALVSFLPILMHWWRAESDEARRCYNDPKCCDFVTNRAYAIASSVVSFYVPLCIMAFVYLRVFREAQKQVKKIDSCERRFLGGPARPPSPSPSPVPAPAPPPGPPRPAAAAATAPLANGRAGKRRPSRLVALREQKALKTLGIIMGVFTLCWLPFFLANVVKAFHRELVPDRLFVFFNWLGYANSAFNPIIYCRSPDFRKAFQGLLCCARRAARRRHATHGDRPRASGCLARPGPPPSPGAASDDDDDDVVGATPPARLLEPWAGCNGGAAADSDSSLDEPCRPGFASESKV

CC(C)NCC(O)COc1cccc2[nH]ccc12 (stereo not drawn) [pindolol]
displacement of radiolabeled iodocyanopindolol by unlabeled ligand (β1-adrenergic receptor): displacement of the radiolabeled ligand down to background levels

MIP-1α: natural ligand for CCR5, unlabeled competing ligand
displacement of radiolabeled MIP-1β by unlabeled ligand (CCR5 [1]): displaced more of the radiolabeled ligand

RANTES: a natural ligand for CCR5
binding to immobilized CCR5 from ligand mixture (CCR5 [2]): specifically binds to the CCR5 receptor; also recorded: bound specifically to CCR5
ligand bound to immobilized CCR5, identified by mass spectrometry (CCR5 [3]): ligand for CCR5
binding of translated ligand to immobilized CCR5 (CCR5 [4]): binding was observed

statherin: second binder identified from THP-1 supernatant on CCR5 (DSSEEKFLRRIGRFGYGYGPYQPVPEQPLYPQPYQPQYQQYTF; UniProt P02808 20-62, looked up)
ligand bound to immobilized CCR5, identified by mass spectrometry (CCR5 [3]): binder

B1: MIP1-β: natural ligand for CCR5, used as radioligand (protein, UniProt P13236 24-92, looked up)
C-C motif chemokine 4: APMGSDPPTACCFSYTARKLPRNFVVDYYETSSLCSQPAVVFQTKRSKQVCADPSESWVQEYVYDLELN
modifications: also: radiolabel
Kd (CCR5 [5]): < 1 nM

B2: C5a: ligand of the C5a receptor (protein, UniProt P01031 678-751, looked up)
C5a anaphylatoxin: TLQKKIEEIAAKYKHSVVKKCCYDGACVNNDETCEQRAARISLGPRCIKAFTECCVVASQLRANISHKDMQLGR
modifications: C5a anaphylatoxin
notes: ligand of the C5a receptor
displacement of radiolabeled C5a by unlabeled ligand (C5a receptor): displacement of the radiolabeled ligand down to background levels

B3: MDC: macrophage-derived chemokine, a CCR4 ligand (protein, UniProt O00626 25-93, looked up)
C-C motif chemokine 22: GPYGANMEDSVCCRDYVRYRLPLRVVKHFYWTSDSCPRPGVVLLTFRDKEICADPRVPWVKMILNKLSQ
binding to immobilized CCR5 from ligand mixture (CCR5 [2]): does not bind to CCR5
